A short description of the experiment: Stabilization of polyesters (rancimate, conductivity of separation products). Conditions: 0.20% stabilizer; 1 hour under pure oxygen at 290° C.; without stabilizer 47. Here is the method:
2.5 kg of a polyester which has been dried for 12 hours at 120° C. in a vacuum drying oven (Polyclear® T86, of Hoechst) is charged with the stabilizers listed in Table 23 and is mixed for 2 hours in a Henschel mixer. This mixture is then extruded in a Schwabenthan extruder at a maximum of 275° C. The polymer string is then granulated. The granulate so obtained is dried for another 12 hours in a vacuum drying oven. In a double determination, 500 mg of the granulate is heated over 10 minutes to 290° C. and is stored for 1 hour under pure oxygen in a rancimate at 290° C. The resulting gaseous separation products are continuously led into an aqueous collecting solution and the conductivity (μS) of this solution is continuously measured. Low conductivity values signify that few separation products are formed, high conductivity values signify that very many separation products are formed. […]

Turning to `CC(C)(C)c1cc2c(c(C(C)(C)C)c1)OC(=O)C2c1cccc(C#N)c1` (stereo not shown) [Compound (107)], the Conductivity was 34 μS.

These data come from patent US6809208B2, “3-Arylbenzofuranones with electron-withdrawing substituents as stabilizers” (Ciba Specialty Chemicals Corporation, priority 2000, dated 2004).
